Data reported in PubChem BioAssay AID2060900 (Molecular Pharmacology Branch, DTP, NCI, 2025).

System: 521955-158-R2-J5-PDC complex spheroids, viability
Assay: Anticancer human tumor 521955-158-R2-J5-PDC patient-derived pancreatic carcinoma cell line growth inhibition [RAS]
Conditions: for IC50: curve of first compound; for viability, T/C: stronger effect = lower value; active = viability on the fitted dose curve at most 10% of control; inactive = the rest
Outline: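 Multi-cell-type spheroids: tumor cells plus HUVEC endothelial cells and mesenchymal stem cells. RAS-pathway inhibitors were combined with targeted agents, each dosed in half-log steps down from clinical Cmax, or from 10 microM when Cmax was unknown.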

[1] = second compound 0.000949 µM, first compound 0.00316 µM
[2] = second compound 0.000949 µM, first compound 0.01 µM
[3] = second compound 0.000949 µM, first compound 0.0316 µM
[4] = second compound 0.000949 µM, first compound 0.1 µM
[5] = second compound 0.000949 µM, first compound 0.316 µM
[6] = second compound 0.000949 µM, first compound 1 µM
[7] = second compound 0.003 µM, first compound 0.00316 µM
[8] = second compound 0.003 µM, first compound 0.01 µM
[9] = second compound 0.003 µM, first compound 0.0316 µM
[10] = second compound 0.003 µM, first compound 0.1 µM
[11] = second compound 0.003 µM, first compound 0.316 µM
[12] = second compound 0.003 µM, first compound 1 µM
[13] = second compound 0.00949 µM, first compound 0.00316 µM
[14] = second compound 0.00949 µM, first compound 0.01 µM
[15] = second compound 0.00949 µM, first compound 0.0316 µM
[16] = second compound 0.00949 µM, first compound 0.1 µM
[17] = second compound 0.00949 µM, first compound 0.316 µM
[18] = second compound 0.00949 µM, first compound 1 µM
[19] = second compound 0.03 µM, first compound 0.00316 µM
[20] = second compound 0.03 µM, first compound 0.01 µM
[21] = second compound 0.03 µM, first compound 0.0316 µM
[22] = second compound 0.03 µM, first compound 0.1 µM
[23] = second compound 0.03 µM, first compound 0.316 µM
[24] = second compound 0.03 µM, first compound 1 µM
[25] = second compound 0.0949 µM, first compound 0.00316 µM
[26] = second compound 0.0949 µM, first compound 0.01 µM
[27] = second compound 0.0949 µM, first compound 0.0316 µM
[28] = second compound 0.0949 µM, first compound 0.1 µM
[29] = second compound 0.0949 µM, first compound 0.316 µM
[30] = second compound 0.0949 µM, first compound 1 µM
[31] = second compound 0.3 µM, first compound 0.00316 µM
[32] = second compound 0.3 µM, first compound 0.01 µM
[33] = second compound 0.3 µM, first compound 0.0316 µM
[34] = second compound 0.3 µM, first compound 0.1 µM
[35] = second compound 0.3 µM, first compound 0.316 µM
[36] = second compound 0.3 µM, first compound 1 µM
[37] = second compound 0.000949 µM, first compound 3.16 µM
[38] = second compound 0.000949 µM, first compound 10 µM
[39] = second compound 0.003 µM, first compound 3.16 µM
[40] = second compound 0.003 µM, first compound 10 µM
[41] = second compound 0.00949 µM, first compound 3.16 µM
[42] = second compound 0.00949 µM, first compound 10 µM
[43] = second compound 0.03 µM, first compound 3.16 µM
[44] = second compound 0.03 µM, first compound 10 µM
[45] = second compound 0.0949 µM, first compound 3.16 µM
[46] = second compound 0.0949 µM, first compound 10 µM
[47] = second compound 0.3 µM, first compound 3.16 µM
[48] = second compound 0.3 µM, first compound 10 µM
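Note: compound exposure lasted seven days before the viability read.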
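Throughout, for viability, T/C: spheroids also contain HUVEC endothelial cells and mesenchymal stem cells as stroma.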

C=CC(=O)Nc1cc(Nc2nccc(-c3cn(C)c4ccccc34)n2)c(OC)cc1N(C)CCN(C)C + CCn1c(-c2cc(N3CCN(C)CC3)cnc2C(C)OC)c2c3cc(ccc31)-c1csc(n1)CC(NC(=O)C1CC1C)C(=O)N1CCCC(N1)C(=O)OCC(C)(C)C2
active: viability, T/C [18] 8.47% | viability, T/C [24] 5.46% | viability, T/C [28] 8.37% | viability, T/C [29] 11.6% | viability, T/C [30] 2.68% | viability, T/C [33] 9.7% | viability, T/C [34] 8.57% | viability, T/C [35] 6.24% | viability, T/C [36] 3.02%
inactive: viability, T/C [1] 44.6% | viability, T/C [2] 53.5% | viability, T/C [3] 38.4% | viability, T/C [4] 43.4% | viability, T/C [5] 35.7% | viability, T/C [6] 23.1% | viability, T/C [7] 40.9% | viability, T/C [8] 46.9% | viability, T/C [9] 50.2% | viability, T/C [10] 43.5% | viability, T/C [11] 35.3% | viability, T/C [12] 18.7% | viability, T/C [13] 41.3% | viability, T/C [14] 39.6% | viability, T/C [15] 27.2% | viability, T/C [16] 31.3% | viability, T/C [17] 21.5% | viability, T/C [19] 19.2% | viability, T/C [20] 23.2% | viability, T/C [21] 19.4% | viability, T/C [22] 18.8% | viability, T/C [23] 14.4% | viability, T/C [25] 16% | viability, T/C [26] 9.37% | viability, T/C [27] 12.8% | viability, T/C [31] 16.4% | viability, T/C [32] 10.6%
< 3.16 nM: IC50 (second compound 0.000949 µM) | IC50 (second compound 0.003 µM) | IC50 (second compound 0.00949 µM) | IC50 (second compound 0.03 µM) | IC50 (second compound 0.0949 µM) | IC50 (second compound 0.3 µM)

CC(C)NCC(C(=O)N1CCN(c2ncnc3c2C(C)CC3O)CC1)c1ccc(Cl)cc1 (stereo not drawn) + CCn1c(-c2cc(N3CCN(C)CC3)cnc2C(C)OC)c2c3cc(ccc31)-c1csc(n1)CC(NC(=O)C1CC1C)C(=O)N1CCCC(N1)C(=O)OCC(C)(C)C2
active: viability, T/C [40] 11.1% | viability, T/C [41] 4.36% | viability, T/C [42] 7.59% | viability, T/C [24] 5.37% | viability, T/C [43] 5.01% | viability, T/C [44] 1.08% | viability, T/C [29] 8.25% | viability, T/C [30] 4.84% | viability, T/C [45] 4.83% | viability, T/C [46] 1.9% | viability, T/C [34] 11% | viability, T/C [35] 8.33% | viability, T/C [36] 2.49% | viability, T/C [47] 4.32% | viability, T/C [48] 1.07%
inactive: viability, T/C [3] 33.8% | viability, T/C [4] 38.8% | viability, T/C [5] 35.5% | viability, T/C [6] 23% | viability, T/C [37] 15.5% | viability, T/C [38] 18.1% | viability, T/C [9] 41.8% | viability, T/C [10] 37% | viability, T/C [11] 36% | viability, T/C [12] 15% | viability, T/C [39] 6.94% | viability, T/C [15] 38.7% | viability, T/C [16] 33.9% | viability, T/C [17] 28% | viability, T/C [18] 8.72% | viability, T/C [21] 20.9% | viability, T/C [22] 21.9% | viability, T/C [23] 16.6% | viability, T/C [27] 11.8% | viability, T/C [28] 13.1% | viability, T/C [33] 10.5%
< 31.6 nM: IC50 (second compound 0.000949 µM) | IC50 (second compound 0.003 µM) | IC50 (second compound 0.00949 µM) | IC50 (second compound 0.03 µM) | IC50 (second compound 0.0949 µM) | IC50 (second compound 0.3 µM)

CC(Nc1ccc2c(c1)OCCn1cc(N3C(=O)OCC3C(F)F)nc1-2)C(N)=O (stereo not drawn) + CCn1c(-c2cc(N3CCN(C)CC3)cnc2C(C)OC)c2c3cc(ccc31)-c1csc(n1)CC(NC(=O)C1CC1C)C(=O)N1CCCC(N1)C(=O)OCC(C)(C)C2
< 31.6 nM: IC50 (second compound 0.000949 µM) | IC50 (second compound 0.003 µM) | IC50 (second compound 0.00949 µM) | IC50 (second compound 0.03 µM) | IC50 (second compound 0.0949 µM) | IC50 (second compound 0.3 µM)
inactive: viability, T/C [3] 31.7% | viability, T/C [4] 24.1% | viability, T/C [5] 21.9% | viability, T/C [6] 13.8% | viability, T/C [37] 14.3% | viability, T/C [38] 11.4% | viability, T/C [9] 32.7% | viability, T/C [10] 22.1% | viability, T/C [11] 20.1% | viability, T/C [12] 13.7% | viability, T/C [15] 31.2% | viability, T/C [16] 21.7% | viability, T/C [17] 11.8% | viability, T/C [21] 12.8% | viability, T/C [22] 10.3% | viability, T/C [33] 10.2%
active: viability, T/C [39] 8.65% | viability, T/C [40] 7.85% | viability, T/C [18] 8.38% | viability, T/C [41] 7.16% | viability, T/C [42] 4.66% | viability, T/C [23] 11.4% | viability, T/C [24] 3.73% | viability, T/C [43] 6.17% | viability, T/C [44] 1.25% | viability, T/C [27] 7.65% | viability, T/C [28] 6.24% | viability, T/C [29] 4.21% | viability, T/C [30] 1.25% | viability, T/C [45] 5.01% | viability, T/C [46] 1.25% | viability, T/C [34] 6.36% | viability, T/C [35] 5.9% | viability, T/C [36] 3.16% | viability, T/C [47] 3.15% | viability, T/C [48] 0.45%

O=C(c1ccc(F)c(F)c1Nc1ccc(I)cc1F)N1CC(O)([C@@H]2CCCCN2)C1 + CCn1c(-c2cc(N3CCN(C)CC3)cnc2C(C)OC)c2c3cc(ccc31)-c1csc(n1)CC(NC(=O)C1CC1C)C(=O)N1CCCC(N1)C(=O)OCC(C)(C)C2
inactive: viability, T/C [1] 59.3% | viability, T/C [2] 50.1% | viability, T/C [3] 49.4% | viability, T/C [4] 38.6% | viability, T/C [5] 26.4% | viability, T/C [6] 24.1% | viability, T/C [7] 41.5% | viability, T/C [8] 46.7% | viability, T/C [9] 39% | viability, T/C [10] 26.8% | viability, T/C [11] 20.1% | viability, T/C [12] 17.4% | viability, T/C [13] 32.3% | viability, T/C [14] 32.1% | viability, T/C [15] 29.2% | viability, T/C [16] 17.4% | viability, T/C [17] 17.8% | viability, T/C [18] 15% | viability, T/C [19] 23.7% | viability, T/C [20] 18.3% | viability, T/C [21] 14.9% | viability, T/C [22] 10.8% | viability, T/C [31] 12.8%
< 3.16 nM: IC50 (second compound 0.003 µM) | IC50 (second compound 0.00949 µM) | IC50 (second compound 0.03 µM) | IC50 (second compound 0.0949 µM) | IC50 (second compound 0.3 µM)
active: viability, T/C [23] 10.3% | viability, T/C [24] 6.61% | viability, T/C [25] 8.68% | viability, T/C [26] 11.3% | viability, T/C [27] 12.6% | viability, T/C [28] 8.23% | viability, T/C [29] 9.48% | viability, T/C [30] 7.34% | viability, T/C [32] 7.85% | viability, T/C [33] 6.59% | viability, T/C [34] 9.27% | viability, T/C [35] 7.62% | viability, T/C [36] 6.97%
20.9 nM: IC50 (second compound 0.000949 µM)
